These are literature values, as cited in patent US20090023700A1, “NEUROPROTECTIVE TREATMENTS” (University of Louisville Research Foundation, priority 2007, published 2009).

This data set has as its system AP1. As to conditions: macrophages; cited from earlier work.

`O=C(O)c1ccccn1.OO.OO.[K+].[K+].[O]=[V]` [bpV(pic), potassium bisperoxo(pyridine-2-carboxylato)oxovanadate(V)]: the AP1 activation entry is on record as “does not”.
